Reference: US9695149B2, “1,2,6-substituted benzimidazoles as flap modulators” (JANSSEN PHARMACEUTICA NV, priority 2013, dated 2017)

Key:
[1] = molecular target: human FLAP (Homo sapiens (Human), UniProt P20292); assay: FLAP binding assay (HTRF format); details: human FLAP-containing Sf-9 membranes, wild type; average of runs
Protocol: (§1) The ability of the compounds of the present invention to treat a FLAP-mediated disease and/or disorder, or associated symptoms or complications thereof, was determined using the following procedures. Binding assay data represent the average value obtained from two different assay plates, with samples run in duplicate on each plate. Human whole blood assay data represent a single replicate on an assay plate using whole blood from at least one healthy donor.
The assay below is used to test the modulatory activity of compounds against FLAP. Human and mouse FLAP-encoding DNA was amplified by polymerase chain reaction and cloned into pFastBac1 (Invitrogen) with a NH2-terminal 6-His tag for expression in Spodoptera frugiperda (Sf-9) cells. FLAP-containing membranes were prepared as was a FITC-labeled FLAP modulator (3-(3-(tert-butylthio)-1-(4-chlorobenzyl)-5-(quinolin-2-ylmethoxy)-1H-indol-2-yl)-2,2-dimethylpropanoic acid). The FLAP binding assay is performed in HTRF format (homogeneous time resolved fluorescence). […] The reaction is allowed to proceed for two hours after which the plate is read on an Envision plate reader in HTRF mode. Data are expressed as a HTRF ratio.
For human FLAP binding assays, data are analyzed with 3DX Explorer software. […] For analysis, data from multiple runs are averaged and each compound may be tested in 2 to 20 runs. Each run comprises two plates and each plate includes duplicates. Data from each plate is averaged and data are imported into 3DX. The data from multiple runs are aggregated as the average of duplicates of the calculated ratios in order to calculate Ki and IC50 values. Numbers in parentheses are the number of runs for the assay.

[2] = tested on: leukotriene pathway in human whole blood; assay: Human whole blood assay (LTB4, A23187-stimulated); format: cell-based; details: Homo sapiens, 0.5 h, human whole blood diluted 1:1 in RPMI, calcium ionophore A23187 7 μg/mL, 30 min
Protocol: as §1
An in vitro cellular assay was performed using human whole blood collected in heparin-containing tubes, which was used to test the ability of compounds to modulate the leukotriene pathway in human whole blood. The blood was diluted 1:1 in RPMI medium, pre-incubated for 15 min at 37° Celsius with test compounds at various concentrations, and then stimulated with calcium ionophore, A23187 (7 μg/mL), for 30 min at 37° Celsius. The samples were then centrifuged and plasma was removed. The plasma was diluted in assay buffer and LTB4 levels were measured using a commercial kit (Enzo Life Sciences). The concentration of each compound that was required for half-maximal inhibition (modulation) of […] (IC50) was calculated by a 4-parameter equation using the program GraphPad Prism (GraphPad software). For analysis, data are imported into 3DX and aggregated as the average of duplicates of the calculated ratios in order to calculate Ki and IC50 values. Numbers in parentheses are the number of runs for the assay.

human FLAP, sequence (P20292 whole entry): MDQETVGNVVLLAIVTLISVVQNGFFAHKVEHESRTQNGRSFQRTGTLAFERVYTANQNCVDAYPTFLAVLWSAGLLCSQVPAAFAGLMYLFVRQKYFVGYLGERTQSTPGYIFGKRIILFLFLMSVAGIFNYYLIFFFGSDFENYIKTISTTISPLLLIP

## CCC(CC)(Cc1nc2ccc(OCc3ccn(C)n3)cc2n1Cc1cccc(N2CCC(F)(F)C2)c1)C(=O)O [Example 211, 2-({1-[3-(3,3-Difluoropyrrolidin-1-yl)benzyl]-6-[(1-methyl-1H-pyrazol-3-yl)methoxy]-1H-benzimidazol-2-yl}methyl)-2-ethylbutanoic acid]
[1]
  Ki: 35 nM
[2]
  IC50: 840 nM
